The source of these data is ChEMBL document CHEMBL5357033, “Discovery of Diverse Sesquiterpenoids from Crossiella cryophila through Genome Mining and NMR Tracking” (J Nat Prod, 2024).

One data set relates to Staphylococcus capitis. Kind of data set: Antimicrobial activity against Staphylococcus capitis W7 assessed as reduction in microbial growth by broth microdilution method. It counts as functional. (In general: Dilution methods test growth across graded concentrations, often in twofold steps.)
The next data set concerns Micrococcus luteus. Kind of data set: Antimicrobial activity against Micrococcus luteus ATCC 4685 assessed as reduction in microbial growth by broth microdilution method. It is filed as functional.
The subject of data set [1] is Staphylococcus aureus. Briefly: Antimicrobial activity against methicillin resistant Staphylococcus aureus assessed as reduction in microbial growth by broth microdilution method. It is filed as functional.
The test system of another data set is Enterococcus. Briefly: Antimicrobial activity against Vancomycin-resistant Enterococci assessed as reduction in microbial growth by broth microdilution method. It counts as functional.
Data set [2] deals with Staphylococcus aureus. Briefly: Antimicrobial activity against Staphylococcus aureus LV-B1 assessed as reduction in microbial growth by broth microdilution method. It is filed as functional.
The subject of the next data set is Bacillus subtilis. Kind of data set: Antimicrobial activity against Bacillus subtilis ATCC 6051 assessed as reduction in microbial growth by broth microdilution method. It is filed as functional.
The test system of a further data set is Klebsiella pneumoniae. Kind of data set: Antimicrobial activity against Klebsiella pneumoniae W5 assessed as reduction in microbial growth by broth microdilution method. It counts as functional.
A further data set has as its system Escherichia coli. Kind of data set: Antimicrobial activity against Escherichia coli CGMCC 1.3344 assessed as reduction in microbial growth by broth microdilution method. It is filed as functional.
The test system of the next data set is Shigella sonnei. Briefly: Antimicrobial activity against Shigella sonnei ZD12 assessed as reduction in microbial growth by broth microdilution method. It counts as functional.
The next data set deals with Paracidovorax avenae. Briefly: Antimicrobial activity against Acidovorax avenae ATCC 19307 assessed as reduction in microbial growth by broth microdilution method. It counts as functional.
In the next data set the test system is Pseudomonas syringae. Kind of data set: Antimicrobial activity against Pseudomonas syringae ATCC-BAA-2502 assessed as reduction in microbial growth by broth microdilution method. It is filed as functional.
The next data set deals with Xanthomonas oryzae. Kind of data set: Antimicrobial activity against Xanthomonas oryzae ATCC 35933 assessed as reduction in microbial growth by broth microdilution method. It counts as functional.
A further data set has as its system A549. Kind of data set: Anticancer activity against human A549 cells assessed as reduction in cell viability at 40 uM measured after 48 hrs by CCK-8 method relative to control. It counts as functional.
Another data set concerns HepG2. Briefly: Anticancer activity against human HepG2 cells assessed as reduction in cell viability at 40 uM measured after 48 hrs by CCK-8 method relative to control. It is filed as functional. For orientation: Formazan colour is commonly taken as a measure of viable cells.
The next data set relates to SW480. Kind of data set: Anticancer activity against human SW480 cells assessed as reduction in cell viability at 40 uM measured after 48 hrs by CCK-8 method relative to control. It is filed as functional.
The next data set relates to MDA-MB-231. Briefly: Anticancer activity against human MDA-MB-231 cells assessed as reduction in cell viability at 40 uM measured after 48 hrs by CCK-8 method relative to control. It counts as functional.
Another data set has as its system MCF7. Kind of data set: Anticancer activity against human MCF7 cells assessed as reduction in cell viability at 40 uM measured after 48 hrs by CCK-8 method relative to control. It counts as functional.
Data set [3] has as its system RAW264.7. Kind of data set: Cytotoxicity against mouse RAW264.7 cells measured after 24hrs by CCK-8 method relative to control. Also noted: concentration or dose not given beside the values. It is filed as toxicity, cell-based. The note with it: raw264.7, 24 h.
Data set [4] has as its system RAW264.7. Briefly: Antiinflammatory activity in mouse RAW264.7 assessed as reduction in LPS-induced NO production incubated for 24 hrs by Griess method relative to control. Also noted: concentration or dose not given beside the values. It is filed as functional. Background: Griess reagent forms a coloured azo dye with nitrite.

By MIC is commonly meant the least concentration at which growth counts as inhibited. `CC1=C[C@@H]2[C@@H](C(C)C)CC[C@@](C)(O)[C@@H]2C[C@@H]1O`: the MIC in the data set with Staphylococcus capitis, with Micrococcus luteus, with Staphylococcus aureus [1], in the data set with Enterococcus, in the data set with Staphylococcus aureus [2] and in the data set with Bacillus subtilis was greater than 128 µg/mL each time. Moreover, the MIC in the data set with Klebsiella pneumoniae, in the data set on Escherichia coli, with Shigella sonnei, in the data set on Paracidovorax avenae, in the data set on Pseudomonas syringae and in the data set on Xanthomonas oryzae was greater than 128 µg/mL each time. The Activity with A549 is 0.28%; in the data set with HepG2, -1.38%; in the data set on SW480, -7.85%; in the data set with MDA-MB-231, -7.21%; with MCF7, 6.01%; with RAW264.7 [3] it was 82.75%. In addition, the Activity in the data set with RAW264.7 [4] is -1.33%.

Regarding `CC1(C)[C@H]2/C=C(/C=O)CC[C@@H]3O[C@@]3(C)CC[C@@H]21`, the MIC in the data set on Staphylococcus capitis, with Micrococcus luteus, in the data set with Staphylococcus aureus [1], in the data set with Enterococcus, with Staphylococcus aureus [2] and in the data set with Bacillus subtilis was greater than 128 µg/mL in each case. The MIC in the data set on Klebsiella pneumoniae, in the data set on Escherichia coli, in the data set with Shigella sonnei, with Paracidovorax avenae, in the data set on Pseudomonas syringae and in the data set on Xanthomonas oryzae was greater than 128 µg/mL each time. Besides, the Activity with A549 was 2.4%; in the data set with HepG2, -4.51%; in the data set on SW480, -21.6%; in the data set with MDA-MB-231 it was -2.33%; with MCF7, 16.05%; in the data set with RAW264.7 [3] it was 81.51%. In addition, the Activity with RAW264.7 [4] is -2.46%.

For `CN(C)[C@@H]1C(O)=C(C(N)=O)C(=O)[C@@]2(O)C(O)=C3C(=O)c4c(O)cccc4[C@@](C)(O)[C@H]3C[C@@H]12` [TETRACYCLINE], the MIC was determined as 4 µg/mL in the data set on Staphylococcus capitis; 2 µg/mL in the data set on Micrococcus luteus; 4 µg/mL with Staphylococcus aureus [1]; 2 µg/mL in the data set on Enterococcus; 0.5 µg/mL in the data set with Staphylococcus aureus [2]; 2 µg/mL in the data set on Bacillus subtilis. For the same compound, the MIC was greater than 128 µg/mL in the data set on Klebsiella pneumoniae; 2 µg/mL with Escherichia coli; 8 µg/mL in the data set with Shigella sonnei; 4 µg/mL in the data set with Paracidovorax avenae; greater than 128 µg/mL in the data set with Pseudomonas syringae; 8 µg/mL in the data set with Xanthomonas oryzae.

Regarding `C[C@H]1CC[C@@H](O)[C@]2(C)CC[C@@H](C(C)(C)O)[C@H](O)[C@@H]12`, the MIC in the data set with Staphylococcus capitis, with Micrococcus luteus, in the data set with Staphylococcus aureus [1], in the data set on Enterococcus, with Staphylococcus aureus [2] and with Bacillus subtilis was greater than 128 µg/mL each time. For the same compound, the MIC with Klebsiella pneumoniae, with Escherichia coli, with Shigella sonnei, in the data set on Paracidovorax avenae, in the data set with Pseudomonas syringae and with Xanthomonas oryzae was greater than 128 µg/mL in each case. The Activity with A549 was 0.97%; with HepG2, -2.3%; in the data set with SW480 it was 10.33%; in the data set with MDA-MB-231, -2.4%; in the data set with MCF7 it was 5.53%; with RAW264.7 [3], 88.18%. Also, the Activity in the data set with RAW264.7 [4] turned out to be 3.3%.

On to `CC1=C[C@H]2[C@H](C(C)C)CC[C@@](C)(O)[C@H]2C[C@H]1O`, for which the minimum inhibitory concentration (MIC) in the data set on Staphylococcus capitis, in the data set with Micrococcus luteus, with Staphylococcus aureus [1], in the data set on Enterococcus, with Staphylococcus aureus [2] and in the data set on Bacillus subtilis was greater than 128 µg/mL each time. Also, the MIC in the data set on Klebsiella pneumoniae, in the data set with Escherichia coli, in the data set on Shigella sonnei, in the data set with Paracidovorax avenae, in the data set with Pseudomonas syringae and with Xanthomonas oryzae was greater than 128 µg/mL each time. For the same compound, the Activity in the data set with A549 was 5.64%; in the data set on HepG2 it was -5.25%; in the data set on SW480, 4.58%; with MDA-MB-231 it was -8.69%; in the data set with MCF7 it was 12.99%; in the data set with RAW264.7 [3], 87.41%. The Activity in the data set with RAW264.7 [4] is -6.33%.

As to `CC1(C)[C@H]2[C@@H]1CC[C@@]1(C)[C@H](O)CC[C@](O)(CO)[C@H]21`, the MIC in the data set with Staphylococcus capitis, in the data set on Micrococcus luteus, in the data set on Staphylococcus aureus [1], with Enterococcus, in the data set on Staphylococcus aureus [2] and in the data set with Bacillus subtilis was greater than 128 µg/mL throughout. The minimum inhibitory concentration (MIC) with Klebsiella pneumoniae, in the data set with Escherichia coli, with Shigella sonnei, in the data set with Paracidovorax avenae, in the data set on Pseudomonas syringae and in the data set on Xanthomonas oryzae was greater than 128 µg/mL in each case. For the same compound, the Activity in the data set with A549 is recorded as 0.34%; in the data set on HepG2, 3.99%; in the data set on SW480, 7.24%; in the data set on MDA-MB-231 it was 27.39%; in the data set with MCF7, 11.1%; in the data set with RAW264.7 [3], 81.69%. In addition, the Activity in the data set on RAW264.7 [4] is recorded as -3.05%.

For the compound `CC1=C[C@@H]2[C@@H](C(C)C)CC[C@@](C)(O)[C@@H]2CC1`, the MIC in the data set on Staphylococcus capitis, in the data set on Micrococcus luteus, in the data set with Staphylococcus aureus [1], in the data set with Enterococcus, in the data set with Staphylococcus aureus [2] and with Bacillus subtilis was greater than 128 µg/mL in each case. Also, the MIC with Klebsiella pneumoniae, with Escherichia coli, in the data set on Shigella sonnei, with Paracidovorax avenae, with Pseudomonas syringae and with Xanthomonas oryzae was greater than 128 µg/mL each time. For the same compound, the Activity amounted to 12.06% in the data set with A549; 4.12% in the data set on HepG2; 6.82% in the data set with SW480; 32.06% in the data set on MDA-MB-231; 18.49% in the data set on MCF7; 90.3% in the data set on RAW264.7 [3]. In addition, in the data set on RAW264.7 [4], the Activity is recorded as -4.95%.

Consider `CC1(C)[C@H]2/C=C(/CO)CC[C@@H]3O[C@@]3(C)CC[C@@H]21`, for which the MIC with Staphylococcus capitis, with Micrococcus luteus, in the data set on Staphylococcus aureus [1], in the data set on Enterococcus, with Staphylococcus aureus [2] and with Bacillus subtilis was greater than 128 µg/mL throughout. Further, the MIC in the data set on Klebsiella pneumoniae, with Escherichia coli, in the data set with Shigella sonnei, in the data set on Paracidovorax avenae, in the data set with Pseudomonas syringae and in the data set on Xanthomonas oryzae was greater than 128 µg/mL in each case. In addition, the Activity in the data set on A549 was 13%; in the data set with HepG2, -11.68%; in the data set with SW480 it was -7.55%; in the data set with MDA-MB-231, 4.47%; in the data set on MCF7, 14.53%; with RAW264.7 [3] it was 8.25%. For the same compound, the Activity in the data set on RAW264.7 [4] is reported as -6.95%.

Turning to `C/C1=C\CC/C(C=O)=C\[C@H]2[C@H](C[C@H]1O)C2(C)C`, the minimum inhibitory concentration (MIC) in the data set with Staphylococcus capitis, with Micrococcus luteus, with Staphylococcus aureus [1], in the data set on Enterococcus, in the data set on Staphylococcus aureus [2] and in the data set on Bacillus subtilis was greater than 128 µg/mL each time. Moreover, the MIC in the data set on Klebsiella pneumoniae, in the data set on Escherichia coli, in the data set on Shigella sonnei, with Paracidovorax avenae, in the data set on Pseudomonas syringae and with Xanthomonas oryzae was greater than 128 µg/mL each time. Moreover, the Activity is reported as -2.39% with A549; -8.84% in the data set with HepG2; -28.68% in the data set on SW480; -11.44% with MDA-MB-231; 1.32% in the data set with MCF7; 89.61% in the data set with RAW264.7 [3]. For the same compound, in the data set with RAW264.7 [4], the Activity came out at 1.33%.

In the case of `C[C@H]1C[C@H](O)[C@@H]2[C@H]3[C@H]1OC(C)(C)[C@@H]3CC[C@@]2(C)O`, the MIC in the data set on Staphylococcus capitis, in the data set on Micrococcus luteus, in the data set with Staphylococcus aureus [1], in the data set on Enterococcus, with Staphylococcus aureus [2] and in the data set with Bacillus subtilis was greater than 128 µg/mL each time. The minimal inhibitory concentration (MIC) in the data set on Klebsiella pneumoniae, in the data set with Escherichia coli, in the data set on Shigella sonnei, with Paracidovorax avenae, in the data set with Pseudomonas syringae and in the data set on Xanthomonas oryzae was greater than 128 µg/mL throughout. Also, the Activity in the data set on A549 is 0.07%; in the data set with HepG2, -8.63%; in the data set with SW480 it was -5.32%; in the data set on MDA-MB-231, 1.66%; with MCF7, 8.24%; in the data set on RAW264.7 [3], 84.88%. Besides, the Activity in the data set on RAW264.7 [4] is 0.67%.
